PubChem BioAssay AID330 (DTP/NCI, 2004)
“And” between values parts separate entries of the source, which are not always exact repeats. Equal values may be shown once. Toxic doses and inconclusive results are not listed. The calls were made as follows: active = survival T/C of 150% or more; inactive = T/C below 125% in these data.

System: P388 leukemia ip, CD2F1 mice, survival T/C
Experiment: NCI In Vivo Anticancer Drug Screen. Data for tumor model P388 Leukemia (intraperitoneal) in CD2F1 (CDF1) mice
Conditions: endpoint: median survival time, higher = longer survival
Procedure, shortened: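 Mice carrying the transplanted tumor received test compound or vehicle. Survival was recorded in each group, and the value is the treated-group measurement divided by that of the vehicle-treated control group.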

[1] = dose: 50.0 mg/kg/injection, schedule: Q01DX005 (ip), vehicle: Klucel (hydroxypropylcellulose) (HPC)
[2] = dose: 100.0 mg/kg/injection, schedule: Q01DX005 (ip), vehicle: Klucel (hydroxypropylcellulose) (HPC)
[3] = dose: 200.0 mg/kg/injection, schedule: Q01DX005 (ip), vehicle: Klucel (hydroxypropylcellulose) (HPC)
[4] = dose: 60.0 mg/kg/injection, schedule: Q01DX005 (ip), vehicle: saline with Tween-80
[5] = dose: 50.0 mg/kg/injection, schedule: Q01DX005 (ip), vehicle: saline with Tween-80
[6] = dose: 100.0 mg/kg/injection, schedule: Q01DX005 (ip), vehicle: saline with Tween-80
[7] = dose: 200.0 mg/kg/injection, schedule: Q01DX005 (ip), vehicle: saline with Tween-80
[8] = dose: 100.0 mg/kg/injection, schedule: Q01DX009 (ip), vehicle: saline with Tween-80
[9] = dose: 200.0 mg/kg/injection, schedule: Q01DX009 (ip), vehicle: saline with Tween-80
[10] = dose: 50.0 mg/kg/injection, schedule: Q01DX009 (ip), vehicle: saline with Tween-80
[11] = dose: 12.5 mg/kg/injection, schedule: Q01DX009 (ip), vehicle: Klucel (hydroxypropylcellulose) (HPC)

Measured: T/C

NC1=NN(S(=O)(=O)c2ccc(Br)cc2)CC1
inactive: [1] 89 % of control | [2] 94 % of control | [3] 89 % of control

COc1cc2c(=O)n3c4c(cccc4c2cc1OC)CC3
inactive: dose: 25.0 mg/kg/injection, schedule: Q01DX009 (ip), vehicle: other 98 % of control | dose: 50.0 mg/kg/injection, schedule: Q01DX009 (ip), vehicle: other 91 % of control | dose: 100.0 mg/kg/injection, schedule: Q01DX009 (ip), vehicle: other 91 % of control | dose: 200.0 mg/kg/injection, schedule: Q01DX009 (ip), vehicle: other 89 % of control | dose: 400.0 mg/kg/injection, schedule: Q01DX009 (ip), vehicle: other 96 % of control

C=C(C)C(=O)O[C@H]1[C@H]2[C@H](OC(=O)[C@H]2C)[C@H](O)[C@@H](C)[C@@H]2C=CC(=O)[C@]21C
inactive: dose: 7.5 mg/kg/injection, schedule: Q01DX009 (ip), vehicle: saline with Tween-80 118 % of control | dose: 15.0 mg/kg/injection, schedule: Q01DX009 (ip), vehicle: saline with Tween-80 113 % of control | dose: 30.0 mg/kg/injection, schedule: Q01DX009 (ip), vehicle: saline with Tween-80 124 % of control

CCOC(=O)c1ccc(NC(=O)Nc2nn[nH]n2)cc1
inactive: dose: 25.0 mg/kg/injection, schedule: Q01DX009 (ip), vehicle: distilled water + Tween-80 105 % of control | dose: 50.0 mg/kg/injection, schedule: Q01DX009 (ip), vehicle: distilled water + Tween-80 115 % of control | dose: 100.0 mg/kg/injection, schedule: Q01DX009 (ip), vehicle: distilled water + Tween-80 108 % of control | dose: 200.0 mg/kg/injection, schedule: Q01DX009 (ip), vehicle: distilled water + Tween-80 100 % of control | dose: 400.0 mg/kg/injection, schedule: Q01DX009 (ip), vehicle: distilled water + Tween-80 108 % of control

COC(=O)C(=O)c1c(-c2ccc(Cl)c(Cl)c2)[nH]c2[nH]n(-c3ccccc3)c(=O)c2c1=O
inactive: [4] 94 % of control | dose: 120.0 mg/kg/injection, schedule: Q01DX005 (ip), vehicle: saline with Tween-80 88 % of control | dose: 240.0 mg/kg/injection, schedule: Q01DX005 (ip), vehicle: saline with Tween-80 88 % of control

CCNc1cc(N)[n+](CC)c2n[nH]c(/N=C/c3cc(Cl)cc(Cl)c3O)c12
inactive: [5] 97 % of control | [6] 87 % of control | [7] 93 % of control

COc1ccc(C=Nc2ccccc2)cc1
inactive: [8] 100 % of control | [9] 118 % of control | dose: 400.0 mg/kg/injection, schedule: Q01DX009 (ip), vehicle: saline with Tween-80 118 % of control

Cn1c2c(c3ccccc31)-c1ncncc1CC2
inactive: dose: 50.0 mg/kg/injection, schedule: Q01DX005 (ip), vehicle: saline + Tween-80 + alcohol 106 % of control | dose: 100.0 mg/kg/injection, schedule: Q01DX005 (ip), vehicle: saline + Tween-80 + alcohol 92 % of control | dose: 200.0 mg/kg/injection, schedule: Q01DX005 (ip), vehicle: saline + Tween-80 + alcohol 103 % of control

CN1CCc2c1cc(-c1ccco1)c1c2N(C)CC1
inactive: [1] 104 % of control | [2] 111 % of control | [3] 107 % of control

NNc1nccnc1Cl
inactive: dose: 50.0 mg/kg/injection, schedule: Q01DX001 (ip), vehicle: saline with Tween-80 102 % of control | dose: 100.0 mg/kg/injection, schedule: Q01DX001 (ip), vehicle: saline with Tween-80 97 % of control | dose: 200.0 mg/kg/injection, schedule: Q01DX001 (ip), vehicle: saline with Tween-80 108 % of control

COCCN1C(N)=C(C#N)C=C2CCCC(N=C(C#N)C#N)=C21
inactive: [4] 101 % of control | [6] 102 % of control | [7] 102 % of control

CCCCC1C2C(S(=O)(=O)c3ccccc3)=NOC2C=CN1C(C)=O (stereo not drawn)
inactive: dose: 15.0 mg/kg/injection, schedule: Q01DX005 (ip), vehicle: saline with Tween-80 105 % of control and 109 % of control | dose: 30.0 mg/kg/injection, schedule: Q01DX005 (ip), vehicle: saline with Tween-80 102 % of control and 93 % of control and 98 % of control

COc1ccc(CSC(=S)Nc2ccc(C)c(Cl)c2)cc1
inactive: dose: 50.0 mg/kg/injection, schedule: Q01DX009 (ip), vehicle: suspension in saline 106 % of control | dose: 100.0 mg/kg/injection, schedule: Q01DX009 (ip), vehicle: suspension in saline 102 % of control | dose: 200.0 mg/kg/injection, schedule: Q01DX009 (ip), vehicle: suspension in saline 111 % of control

COc1ccc2ccc(=O)oc2c1C1=C(C)C(=O)OC1
inactive: dose: 2.0 mg/kg/injection, schedule: Q01DX009 (ip), vehicle: Klucel (hydroxypropylcellulose) (HPC) 108 % of control | dose: 4.0 mg/kg/injection, schedule: Q01DX009 (ip), vehicle: Klucel (hydroxypropylcellulose) (HPC) 100 % of control | dose: 8.0 mg/kg/injection, schedule: Q01DX009 (ip), vehicle: Klucel (hydroxypropylcellulose) (HPC) 98 % of control | dose: 16.0 mg/kg/injection, schedule: Q01DX009 (ip), vehicle: Klucel (hydroxypropylcellulose) (HPC) 108 % of control

Cc1ccc(S(=O)(=O)NC(=O)Nc2ncn[nH]2)cc1
inactive: [10] 99 % of control | [8] 98 % of control | [9] 104 % of control

NC(=O)Nc1nc(C(F)(F)F)cc(=O)[nH]1
inactive: [10] 103 % of control | [8] 106 % of control | [9] 99 % of control

Cn1c2ccccc2c(=O)c2c(O)cc3c(c21)C=CC(C)(C)O3
inactive: dose: 0.38 mg/kg/injection, schedule: Q01DX009 (ip), vehicle: Klucel (hydroxypropylcellulose) (HPC) 107 % of control | dose: 0.38 mg/kg/injection, schedule: Q01DX009 (ip), vehicle: saline with Tween-80 95 % of control | dose: 0.75 mg/kg/injection, schedule: Q01DX009 (ip), vehicle: Klucel (hydroxypropylcellulose) (HPC) 102 % of control and 97 % of control | dose: 0.75 mg/kg/injection, schedule: Q01DX009 (ip), vehicle: saline with Tween-80 98 % of control | dose: 1.5 mg/kg/injection, schedule: Q01DX009 (ip), vehicle: Klucel (hydroxypropylcellulose) (HPC) 99 % of control and 103 % of control | dose: 1.5 mg/kg/injection, schedule: Q01DX009 (ip), vehicle: saline with Tween-80 94 % of control | dose: 1.56 mg/kg/injection, schedule: Q01DX009 (ip), vehicle: Klucel (hydroxypropylcellulose) (HPC) 124 % of control | dose: 3.0 mg/kg/injection, schedule: Q01DX009 (ip), vehicle: Klucel (hydroxypropylcellulose) (HPC) 102 % of control and 103 % of control | dose: 3.0 mg/kg/injection, schedule: Q01DX009 (ip), vehicle: saline with Tween-80 94 % of control | dose: 3.12 mg/kg/injection, schedule: Q01DX009 (ip), vehicle: Klucel (hydroxypropylcellulose) (HPC) 101 % of control | dose: 6.25 mg/kg/injection, schedule: Q01DX009 (ip), vehicle: Klucel (hydroxypropylcellulose) (HPC) 102 % of control | [11] 100 % of control

O=C(c1ccccc1)c1cccs1
inactive: dose: 22.0 mg/kg/injection, schedule: Q01DX009 (ip), vehicle: saline with Tween-80 113 % of control | dose: 44.0 mg/kg/injection, schedule: Q01DX009 (ip), vehicle: saline with Tween-80 104 % of control | dose: 88.0 mg/kg/injection, schedule: Q01DX009 (ip), vehicle: saline with Tween-80 109 % of control

COc1cc(C(NC(N)=O)c2cc3c(cc2O)OCO3)cc(OC)c1O (stereo not drawn)
inactive: dose: 60.0 mg/kg/injection, schedule: Q01DX005 (ip), vehicle: Klucel + Tween-80 100 % of control | dose: 120.0 mg/kg/injection, schedule: Q01DX005 (ip), vehicle: Klucel + Tween-80 88 % of control | dose: 240.0 mg/kg/injection, schedule: Q01DX005 (ip), vehicle: Klucel + Tween-80 88 % of control

Cc1ccc(S(=O)(=O)C(=S)N(C)N(C)C)cc1
inactive: [11] 115 % of control | dose: 25.0 mg/kg/injection, schedule: Q01DX009 (ip), vehicle: Klucel (hydroxypropylcellulose) (HPC) 117 % of control

O=C(CCCCCCC(=O)ON1C(=O)CCC1=O)ON1C(=O)CCC1=O
inactive: [5] 122 % of control
